Measured values from patent publication US8362051B2, “Mold-resistant wallboard” (Rohm and Haas Company, priority 2007, dated 2013).

Assays:
Type in all cases: cell-based
mold [1] = experiment: TAPPI T-487 test on surface-treated paper; design: key to TAPPI T-487 rating Week 1 / TAPPI T-487 rating Week 2 / TAPPI T-487 rating Week 3: 100% mold coverage; 1: 90% mold coverage; 2: 80% mold coverage; 3: 70% mold coverage; 4: 60% mold coverage; 50% mold coverage; 6: 40% mold coverage; 7: 30% mold coverage; 8: 20% mold coverage; 9: 10% mold coverage; 10: no mold growth; settings: surface treatment; for TAPPI T-487 rating Week 1 / TAPPI T-487 rating Week 2 / TAPPI T-487 rating Week 3: average of three sheets
Method: The papers of this example were prepared via surface treatment. The values in Table 3 below represent the average concentration of active biocide in the paper and the average […]-487 test rating based on three paper sheets.

mold [2] = experiment: TAPPI T-487 fungal efficacy test on paper sheets, biocide added to pulp slurry; design: key: coverage; 8: 20% mold coverage; 9: 10% mold coverage; 10: no mold growth; settings: average of three sheets
Method: (§1) The biocides can be evaluated in the following examples by adding to a 0.4 wt % pulp slurry in water (100% recycle) typically used for gypsum wallboard facing paper. The slurry is filtered through a screen to drain the water from the stock and the resulting paper mat is blotted, couched, and dried to form a paper sheet with a basis weight of approximately 40 lb/1000 ft2. Three sheets per condition are prepared. High Performance Liquid Chromatography (HPLC) is used to determine the amount of biocide present in each sheet. The paper sheets are evaluated for fungal growth via ASTM 3273, currently the industry standard for mold-resistant wallboard, as well as the standard TAPPI T-487 fungal efficacy test.
(§2) The values in Tables 1 and 2 below represent data from samples made substantially according to the preceding protocol. The average concentration of active biocide in the paper and the average test rating based on three paper sheets are shown. Based on tables 1 and 2, approximately 4-4.5 times more DIMTS active was needed in the paper sheet than OIT before no mold growth was observed throughout the entire testing period.
(§3) For ASTM 3273, a 4-week test, the following rating scale applies: • 0—100% mold coverage • 1—90% mold coverage • 2—80% mold coverage • 3—70% mold coverage • 4—60% mold coverage • 5—50% mold coverage • 6—40% mold coverage • 7—30% mold coverage • 8—20% mold coverage • 9—10% mold coverage • 10—no mold growth For TAPPI T-487, a 3-week test, the following rating scale applies: • 0—no mold growth • 1—25% mold coverage • 2—50% mold coverage • 3—75% mold coverage • 4—100% mold coverage

mold [3] = experiment: ASTM 3273 fungal growth test on paper sheets, biocide added to pulp slurry; design: key to ASTM 3273 rating Week 1: 0: 100% mold coverage; 1: 90%; 2: 80%; 3: 70%; 4: 60%; 5: 50%; 6: 40%; 7: 30%; 8: 20%; 9: 10%; 10: no mold growth coverage; 8: 20% mold coverage; 9: 10% mold coverage; 10: no mold growth; key to ASTM 3273 rating Week 2 / ASTM 3273 rating Week 3 / ASTM 3273 rating Week 4: 100% mold coverage; 1: 90% mold coverage; 2: 80% mold coverage; 3: 70% mold coverage; 4: 60% mold coverage; 50% mold coverage; 6: 40% mold coverage; 7: 30% mold coverage; 8: 20% mold coverage; 9: 10% mold coverage; 10: no mold growth; settings: average of three sheets
Method: as §1, §2, §3

CCCCNC(=O)OCC#CI [IPBC, 3-iodo-2-propynyl-butylcarbamate]
TAPPI T-487 rating Week 1 (mold [1]; 70 ppm in paper): 0 | TAPPI T-487 rating Week 2 (mold [1]; 70 ppm in paper): 0 | TAPPI T-487 rating Week 3 (mold [1]; 70 ppm in paper): 0 | TAPPI T-487 rating Week 1 (mold [1]; 688 ppm in paper): 0 | TAPPI T-487 rating Week 2 (mold [1]; 688 ppm in paper): 0 | TAPPI T-487 rating Week 3 (mold [1]; 688 ppm in paper): 0 | TAPPI T-487 rating Week 1 (mold [1]; 6768 ppm in paper): 0 | TAPPI T-487 rating Week 2 (mold [1]; 6768 ppm in paper): 0 | TAPPI T-487 rating Week 3 (mold [1]; 6768 ppm in paper): 0 | effectiveness at controlling mold growth versus comparators (mold [1]; based on Table 3): more effective at controlling mold growth at lower dosages than DIMTS, ZPT, and TBZ

CCCCCCCCn1sccc1=O [OIT, octylisothiazolinone]
TAPPI T-487 rating Week 1 (mold [2]; 181 ppm in paper sheet): 0 | TAPPI T-487 rating Week 2 (mold [2]; 181 ppm in paper sheet): 0 | TAPPI T-487 rating Week 3 (mold [2]; 181 ppm in paper sheet): 0 | TAPPI T-487 rating Week 1 (mold [2]; 309 ppm in paper sheet): 0 | TAPPI T-487 rating Week 2 (mold [2]; 309 ppm in paper sheet): 0 | TAPPI T-487 rating Week 3 (mold [2]; 309 ppm in paper sheet): 0 | TAPPI T-487 rating Week 1 (mold [2]; 492 ppm in paper sheet): 0 | TAPPI T-487 rating Week 2 (mold [2]; 492 ppm in paper sheet): 0 | TAPPI T-487 rating Week 3 (mold [2]; 492 ppm in paper sheet): 0 | ASTM 3273 rating Week 1 (mold [3]; 113 ppm in paper sheet): 10 | ASTM 3273 rating Week 2 (mold [3]; 113 ppm in paper sheet): 10 | ASTM 3273 rating Week 3 (mold [3]; 113 ppm in paper sheet): 10 | ASTM 3273 rating Week 4 (mold [3]; 113 ppm in paper sheet): 10 | ASTM 3273 rating Week 1 (mold [3]; 174 ppm in paper sheet): 10 | ASTM 3273 rating Week 2 (mold [3]; 174 ppm in paper sheet): 10 | ASTM 3273 rating Week 3 (mold [3]; 174 ppm in paper sheet): 10 | ASTM 3273 rating Week 4 (mold [3]; 174 ppm in paper sheet): 10 | ASTM 3273 rating Week 1 (mold [3]; 283 ppm in paper sheet): 10 | ASTM 3273 rating Week 2 (mold [3]; 283 ppm in paper sheet): 10 | ASTM 3273 rating Week 3 (mold [3]; 283 ppm in paper sheet): 10 | ASTM 3273 rating Week 4 (mold [3]; 283 ppm in paper sheet): 10

c1ccc2[nH]c(-c3cscn3)nc2c1 [TBZ, Thiabendazole]
TAPPI T-487 rating Week 1 (mold [1]; 31 ppm in paper): 4 (100% mold coverage) | TAPPI T-487 rating Week 2 (mold [1]; 31 ppm in paper): 4 (100% mold coverage) | TAPPI T-487 rating Week 3 (mold [1]; 31 ppm in paper): 4 (100% mold coverage) | TAPPI T-487 rating Week 1 (mold [1]; 229 ppm in paper): 2 (50% mold coverage) | TAPPI T-487 rating Week 2 (mold [1]; 229 ppm in paper): 4 (100% mold coverage) | TAPPI T-487 rating Week 3 (mold [1]; 229 ppm in paper): 4 (100% mold coverage) | TAPPI T-487 rating Week 1 (mold [1]; 4107 ppm in paper): 0 | TAPPI T-487 rating Week 2 (mold [1]; 4107 ppm in paper): 0 | TAPPI T-487 rating Week 3 (mold [1]; 4107 ppm in paper): 0

zinc pyrithione [ZPT]
TAPPI T-487 rating Week 1 (mold [1]; 60 ppm in paper): 4 (100% mold coverage) | TAPPI T-487 rating Week 2 (mold [1]; 60 ppm in paper): 4 (100% mold coverage) | TAPPI T-487 rating Week 3 (mold [1]; 60 ppm in paper): 4 (100% mold coverage) | TAPPI T-487 rating Week 1 (mold [1]; 486 ppm in paper): 1 (25% mold coverage) | TAPPI T-487 rating Week 2 (mold [1]; 486 ppm in paper): 4 (100% mold coverage) | TAPPI T-487 rating Week 3 (mold [1]; 486 ppm in paper): 4 (100% mold coverage) | TAPPI T-487 rating Week 1 (mold [1]; 5408 ppm in paper): 0 | TAPPI T-487 rating Week 2 (mold [1]; 5408 ppm in paper): 0 | TAPPI T-487 rating Week 3 (mold [1]; 5408 ppm in paper): 0
